Results published in ChEMBL document CHEMBL1126359, “Synthesis and pharmacological activity of rationally designed inhibitors of the leukotriene A4 hydrolase enzyme” (Bioorg Med Chem Lett, 1992).

Experiments:
[1] = molecular target: T1, Leukotriene A-4 hydrolase (Homo sapiens) (UniProt P09960); test: Inhibition of Leukotriene B4 by inhibiting the conversion of Leukotriene A4 by a purified Leukotriene A4 hydrolase; IE - ineffective
T1 sequence (whole entry): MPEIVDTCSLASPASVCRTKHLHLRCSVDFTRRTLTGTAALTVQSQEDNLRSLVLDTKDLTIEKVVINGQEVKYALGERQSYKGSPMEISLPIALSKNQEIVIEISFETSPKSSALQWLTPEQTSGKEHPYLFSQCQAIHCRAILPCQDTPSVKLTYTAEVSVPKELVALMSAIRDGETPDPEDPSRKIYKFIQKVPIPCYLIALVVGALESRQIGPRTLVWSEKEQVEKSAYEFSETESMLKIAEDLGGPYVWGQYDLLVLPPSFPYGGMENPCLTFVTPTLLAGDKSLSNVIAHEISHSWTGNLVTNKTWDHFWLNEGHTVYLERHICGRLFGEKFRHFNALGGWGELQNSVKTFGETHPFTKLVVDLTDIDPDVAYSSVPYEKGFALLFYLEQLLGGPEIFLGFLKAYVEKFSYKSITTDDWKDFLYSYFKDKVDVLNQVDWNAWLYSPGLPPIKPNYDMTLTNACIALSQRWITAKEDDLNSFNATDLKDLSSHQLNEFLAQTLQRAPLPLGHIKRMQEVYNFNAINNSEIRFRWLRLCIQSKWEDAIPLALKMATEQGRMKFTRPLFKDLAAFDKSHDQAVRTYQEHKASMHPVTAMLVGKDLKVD

HL-60 = test: Inhibitory activity against calcium ionophore induced Leukotriene B4 biosynthesis by the promyelocytic leukemia cell line HL-60 at concentrations of 10e-6 M; A - good inhibitory activity; type: functional, cell-based; conditions: Homo sapiens

| Activity [1] | SMILES | Activity (HL-60) |
| --- | --- | --- |
| Ineffective | CCCCCCCC/C=C\C=C\C1=C[C@@H]2CC[C@@]1(CCCC(=O)O)O2 | A |
| Ineffective | CCCCCCCCCC/C=C/C1=C[C@@H]2CC[C@@]1(CCCC(=O)O)O2 | A |
